System: AMPK
Test: AMPK enzyme activity assay (Delfia technology, AMARA peptide substrate)
Assay type: biochemical
Settings: compound at 30 μM vs AMP at 200 μM
Experimental: The following biological test allows the determination of the efficacy of compounds of formula (1) onto AMPK protein.
AMPK enzyme activities were assayed by using a Delfia technology. AMPK enzyme activities were carried out in microtiter plates in the presence of a synthetic peptide substrate (AMARAASAAALARRR, the “AMARA” peptide) and activators in serial dilutions. Reactions were initiated by the addition of AMPK. Enzyme activity was assayed by using an anti-phosphoserine antibody to measure the quantity of phosphate incorporated into the AMARAA.
No: Number of the molecule
Activity: Ratio between the % of control (basal activity) of compound of formula (1) at 30 μM and the % of control (basal activity) of AMP (natural substrate) at 200 μM.

SMILES | Activity: Ratio between the % of control (basal activity) of compound of formula (1) at 30 μM and the % of control (basal activity) of AMP (natural substrate) at 200 μM | Activity: Ratio between the % of control (basal activity) of compound of formula (1) at 30 μM and the % of control (basal activity) of AMP (natural substrate) at 200 μM (listed as 2)
CC1(c2ccccc2)C(=O)Nc2sc(Cl)c(-c3ccc(F)cc3)c2C1=O (stereo not shown) [No 26, 2-chloro-3-(4-fluorophenyl)-5-methyl-5-phenyl-7H-thieno[2,3-b]pyridine-4,6-dione] | A (0%<A<50%) | –
CC1(c2cccc(F)c2)C(=O)Nc2sc(Cl)c(-c3ccccc3)c2C1=O (stereo not shown) [No 27, 2-chloro-5-(3-fluorophenyl)-5-methyl-3-phenyl-7H-thieno[2,3-b]pyridine-4,6-dione] | A (0%<A<50%) | –
CC1(c2ccccc2F)C(=O)Nc2sc(Cl)c(-c3ccccc3)c2C1=O (stereo not shown) [No 28, 2-chloro-5-(2-fluorophenyl)-5-methyl-3-phenyl-7H-thieno[2,3-b]pyridine-4,6-dione] | A (0%<A<50%) | –
CC1(c2ccccc2)C(=O)Nc2sc(Cl)c(-c3cccc(F)c3)c2C1=O (stereo not shown) [No 29, 2-chloro-3-(3-fluorophenyl)-5-methyl-5-phenyl-7H-thieno[2,3-b]pyridine-4,6-dione] | C (C≧75%) | –
CC1(c2ccccc2)C(=O)Nc2sc(Cl)c(-c3ccccc3F)c2C1=O (stereo not shown) [No 30, 2-chloro-3-(2-fluorophenyl)-5-methyl-5-phenyl-7H-thieno[2,3-b]pyridine-4,6-dione] | A (0%<A<50%) | –
Cc1ccc(C2(C)C(=O)Nc3sc(Cl)c(-c4ccccc4)c3C2=O)cc1 (stereo not shown) [No 31, 2-chloro-5-methyl-3-phenyl-5-(p-tolyl)-7H-thieno[2,3-b]pyridine-4,6-dione] | A (0%<A<50%) | –
CC1(c2ccc(F)cc2)C(=O)Nc2sc(Cl)c(-c3ccccc3)c2C1=O (stereo not shown) [No 32, 2-chloro-5-(4-fluorophenyl)-5-methyl-3-phenyl-7H-thieno[2,3-b]pyridine-4,6-dione] | A (0%<A<50%) | –
Cc1cccc(C2(C)C(=O)Nc3sc(Cl)c(-c4ccccc4)c3C2=O)c1 (stereo not shown) [No 33, 2-chloro-5-methyl-5-(m-tolyl)-3-phenyl-7H-thieno[2,3-b]pyridine-4,6-dione] | A (0%<A<50%) | –
Cc1ccc(-c2c(Cl)sc3c2C(=O)C(C)(c2ccccc2)C(=O)N3)cc1 (stereo not shown) [No 34, 2-chloro-5-methyl-5-phenyl-3-(p-tolyl)-7H-thieno[2,3-b]pyridine-4,6-dione] | A (0%<A<50%) | –
COc1ccc(C2(C)C(=O)Nc3sc(Cl)c(-c4ccccc4)c3C2=O)cc1 (stereo not shown) [No 35, 2-chloro-5-(4-methoxyphenyl)-5-methyl-3-phenyl-7H-thieno[2,3-b]pyridine-4,6-dione] | A (0%<A<50%) | –
COc1ccc(-c2c(Cl)sc3c2C(=O)C(C)(c2ccccc2)C(=O)N3)cc1 (stereo not shown) [No 36, 2-chloro-3-(4-methoxyphenyl)-5-methyl-5-phenyl-7H-thieno[2,3-b]pyridine-4,6-dione] | A (0%<A<50%) | –
CC1(c2ccc(F)cc2)C(=O)Nc2sc(Cl)c(-c3cccc(F)c3)c2C1=O (stereo not shown) [No 37, 2-chloro-3-(3-fluorophenyl)-5-(4-fluorophenyl)-5-methyl-7H-thieno[2,3-b]pyridine-4,6-dione] | A (0%<A<50%) | –
COc1cccc(C2(C)C(=O)Nc3sc(Cl)c(-c4ccccc4)c3C2=O)c1 (stereo not shown) [No 38, 2-chloro-5-(3-methoxyphenyl)-5-methyl-3-phenyl-7H-thieno[2,3-b]pyridine-4,6-dione] | A (0%<A<50%) | –
COc1ccc(-c2c(Cl)sc3c2C(=O)C(C)(c2ccc(F)cc2)C(=O)N3)cc1 (stereo not shown) [No 39, 2-chloro-5-(4-fluorophenyl)-3-(4-methoxyphenyl)-5-methyl-7H-thieno[2,3-b]pyridine-4,6-dione] | A (0%<A<50%) | –
COc1cccc(-c2c(Cl)sc3c2C(=O)C(C)(c2ccccc2)C(=O)N3)c1 (stereo not shown) [No 40, 2-chloro-3-(3-methoxyphenyl)-5-methyl-5-phenyl-7H-thieno[2,3-b]pyridine-4,6-dione] | A (0%<A<50%) | –
COc1cccc(-c2c(Cl)sc3c2C(=O)C(C)(c2ccc(C)cc2)C(=O)N3)c1 (stereo not shown) [No 41, 2-chloro-3-(3-methoxyphenyl)-5-methyl-5-(p-tolyl)-7H-thieno[2,3-b]pyridine-4,6-dione] | A (0%<A<50%) | –

The remaining lines, values ahead:

Activity: Ratio between the % of control (basal activity) of compound of formula (1) at 30 μM and the % of control (basal activity) of AMP (natural substrate) at 200 μM | Activity: Ratio between the % of control (basal activity) of compound of formula (1) at 30 μM and the % of control (basal activity) of AMP (natural substrate) at 200 μM (listed as 2) | SMILES
A (0%<A<50%) | – | COc1cccc(-c2c(Cl)sc3c2C(=O)C(C)(c2ccc(F)cc2)C(=O)N3)c1 (stereo not shown) [No 42, 2-chloro-5-(4-fluorophenyl)-3-(3-methoxyphenyl)-5-methyl-7H-thieno[2,3-b]pyridine-4,6-dione]
A (0%<A<50%) | – | COc1ccc(C2(C)C(=O)Nc3sc(Cl)c(-c4cccc(OC)c4)c3C2=O)cc1 (stereo not shown) [No 43, 2-chloro-3-(3-methoxyphenyl)-5-(4-methoxyphenyl)-5-methyl-7H-thieno[2,3-b]pyridine-4,6-dione]
A (0%<A<50%) | – | COc1cccc(-c2c(Cl)sc3c2C(=O)C(C)(c2cccc(C)c2)C(=O)N3)c1 (stereo not shown) [No 44, 2-chloro-3-(3-methoxyphenyl)-5-methyl-5-(m-tolyl)-7H-thieno[2,3-b]pyridine-4,6-dione]
A (0%<A<50%) | – | Cc1ccc(-c2c(Cl)sc3c2C(=O)C(C)(c2cccc(F)c2)C(=O)N3)cc1 (stereo not shown) [No 45, 2-chloro-5-(3-fluorophenyl)-5-methyl-3-(p-tolyl)-7H-thieno[2,3-b]pyridine-4,6-dione]
B (50%≦B<75%) | – | O=C1Nc2sc(Cl)c(-c3ccc(F)cc3O)c2C(=O)C1(F)c1ccccc1 (stereo not shown) [No 46, 2-chloro-5-fluoro-3-(4-fluoro-2-hydroxy-phenyl)-5-phenyl-7H-thieno[2,3-b]pyridine-4,6-dione]
A (0%<A<50%) | – | Cc1ccccc1-c1c(Cl)sc2c1C(=O)C(C)(c1ccccc1F)C(=O)N2 (stereo not shown) [No 47, 2-chloro-5-(2-fluorophenyl)-5-methyl-3-(o-tolyl)-7H-thieno[2,3-b]pyridine-4,6-dione]
A (0%<A<50%) | B (50%≦B<75%) | COC1(c2ccccc2)C(=O)Nc2sc(Cl)c(-c3ccccc3)c2C1=O (stereo not shown) [No 48, 2-chloro-5-methoxy-3,5-diphenyl-7H-thieno[2,3-b]pyridine-4,6-dione]
A (0%<A<50%) | – | CC1(c2ccc(F)cc2)C(=O)Nc2sc(Cl)c(-c3ccc(F)cc3)c2C1=O (stereo not shown) [No 49, 2-chloro-3,5-bis(4-fluorophenyl)-5-methyl-7H-thieno[2,3-b]pyridine-4,6-dione]
A (0%<A<50%) | – | Cc1ccc(C2(C)C(=O)Nc3sc(Cl)c(-c4ccc(F)cc4)c3C2=O)cc1 (stereo not shown) [No 50, 2-chloro-3-(4-fluorophenyl)-5-methyl-5-(p-tolyl)-7H-thieno[2,3-b]pyridine-4,6-dione]
A (0%<A<50%) | – | CC1(c2cccc(F)c2)C(=O)Nc2sc(Cl)c(-c3ccc(F)cc3)c2C1=O (stereo not shown) [No 51, 2-chloro-5-(3-fluorophenyl)-3-(4-fluorophenyl)-5-methyl-7H-thieno[2,3-b]pyridine-4,6-dione]
A (0%<A<50%) | – | COc1ccccc1-c1c(Cl)sc2c1C(=O)C(C)(c1ccc(F)cc1)C(=O)N2 (stereo not shown) [No 52, 2-chloro-5-(4-fluorophenyl)-3-(2-methoxyphenyl)-5-methyl-7H-thieno[2,3-b]pyridine-4,6-dione]
A (0%<A<50%) | – | COc1ccc(C2(C)C(=O)Nc3sc(Cl)c(-c4ccc(F)cc4)c3C2=O)cc1 (stereo not shown) [No 53, 2-chloro-3-(4-fluorophenyl)-5-(4-methoxyphenyl)-5-methyl-7H-thieno[2,3-b]pyridine-4,6-dione]
A (0%<A<50%) | – | CC1(c2ccc(S(C)(=O)=O)cc2)C(=O)Nc2sc(Cl)c(-c3ccc(F)cc3)c2C1=O (stereo not shown) [No 54, 2-chloro-3-(4-fluorophenyl)-5-methyl-5-(4-methyl-sulfonylphenyl)-7H-thieno[2,3-b]pyridine-4,6-dione]
B (50%≦B<75%) | – | CC1(c2ccccc2F)C(=O)Nc2sc(Cl)c(-c3ccc(F)cc3)c2C1=O (stereo not shown) [No 55, 2-chloro-5-(2-fluorophenyl)-3-(4-fluorophenyl)-5-methyl-7H-thieno[2,3-b]pyridine-4,6-dione]
